Reference: patent US6762207B1, “(E)-styryl sulfone anticancer agents” (priority 1999, dated 2004)

Experiments:
Assay type in all cases: cell-based
Parameters in all cases: dose or concentration left out as unconfirmed
Settings in all cases: 96 hours
[1] = test system: breast tumor cell line BT-20; assay: Trypan blue exclusion viability assay, BT20
Procedure: (§1) MCF-7 is estrogen-responsive, while BT-20 is an estrogen-unresponsive cell line. NIH/3T3 and HFL are normal murine and human fibroblasts, respectively. MCF-7, BT-20, DLD-1 and H157 were grown in Dulbecco's modified Eagle's medium (DMEM) containing 10% fetal bovine serum supplemented with penicillin and streptomycin. DU145 was cultured in RPMI with 10% fetal bovine serum containing penicillin and streptomycin. […] All cell cultures were maintained at 37° C. in a humidified atmosphere of 5% CO2. Cells were treated with test compound at 2.5 mM concentration and cell viability was determined after 96 hours by the Trypan blue exclusion method.

[2] = test system: colorectal carcinoma cell line DLD-1; assay: Trypan blue exclusion viability assay, DLD-1
Procedure: as §1

[3] = test system: prostate tumor cell line DU-145; assay: Trypan blue exclusion viability assay, DU145
Procedure: as §1

[4] = test system: non-small cell lung carcinoma cell line H157; assay: Trypan blue exclusion viability assay, H157
Procedure: as §1

| Compound | Cell death, BT20 [1] | Cell death, DLD-1 [2] | Cell death, DU145 [3] | Cell death, H157 [4] |
| --- | --- | --- | --- | --- |
| O=S(=O)(/C=C/c1ccc(Br)cc1)Cc1ccc(Cl)c(Cl)c1 [Example 8, (E)-4-Bromostyryl-3,4-dichlorobenzylsulfone] | − (0% = −) | − (0% = −) | − (0% = −) | – |
| O=[N+]([O-])c1cccc(/C=C/S(=O)(=O)Cc2ccc(F)cc2)c1 [Example 30, (E)-3-nitrostyryl-4-fluorobenzylsulfone] | + (5-10%: = +) | + (5-10%: = +) | + (5-10%: = +) | + (5-10%: = +) |
| O=[N+]([O-])c1ccccc1/C=C/S(=O)(=O)Cc1ccc(F)cc1 [Example 29, (E)-2-nitrostyryl-4-fluorobenzylsulfone] | + (5-10%: = +) | + (5-10%: = +) | + (5-10%: = +) | + (5-10%: = +) |
| Cc1ccc(CS(=O)(=O)/C=C/c2ccc(F)cc2)cc1 [Example 55, (E)-4-fluorostyryl-4-methylbenzylsulfone] | + (5-10%: = +) | + (5-10%: = +) | + (5-10%: = +) | + (5-10%: = +) |
| O=[N+]([O-])c1cccc(/C=C/S(=O)(=O)Cc2ccc(Cl)cc2)c1 [Example 37, (E)-3-nitrostyryl-4-chlorobenzylsulfone] | + (5-10%: = +) | + (5-10%: = +) | + (5-10%: = +) | + (5-10%: = +) |
| O=[N+]([O-])c1ccccc1/C=C/S(=O)(=O)Cc1ccc(Cl)cc1 [Example 36, (E)-2-nitrostyryl-4-chlorobenzylsulfone] | + (5-10%: = +) | + (5-10%: = +) | + (5-10%: = +) | + (5-10%: = +) |
| O=[N+]([O-])c1ccccc1/C=C/S(=O)(=O)Cc1ccc(Cl)cc1Cl [Example 44, (E)-2-nitrostyryl-2,4-dichlorobenzylsulfone] | + (5-10%: = +) | + (5-10%: = +) | + (5-10%: = +) | + (5-10%: = +) |
| O=S(=O)(/C=C/c1ccc(C(F)(F)F)cc1)Cc1ccc(F)cc1 [Example 34, (E)4-trifluoromethylstyryl-4-fluorobenzylsulfone] | + (5-10%: = +) | + (5-10%: = +) | + (5-10%: = +) | + (5-10%: = +) |
| O=S(=O)(/C=C/c1ccccc1C(F)(F)F)Cc1ccc(Cl)cc1 [Example 39, (E)-2-trifluoromethylstyryl-4-chlorobenzylsulfone] | + (5-10%: = +) | + (5-10%: = +) | + (5-10%: = +) | + (5-10%: = +) |
| O=[N+]([O-])c1cccc(/C=C/S(=O)(=O)Cc2ccc(Br)cc2)c1 [Example 47, (E)-3-nitrostyryl-4-bromobenzylsulfone] | + (5-10%: = +) | + (5-10%: = +) | + (5-10%: = +) | + (5-10%: = +) |
| O=[N+]([O-])c1ccccc1/C=C/S(=O)(=O)Cc1ccc(I)cc1 [Example 25, (E)-2-Nitrostyryl-4-iodobenzylsulfone] | ++ (10-15% = ++) | ++ (10-15% = ++) | ++ (10-15% = ++) | ++ (10-15% = ++) |
| O=[N+]([O-])c1ccc(/C=C/S(=O)(=O)Cc2ccc(F)cc2)cc1 [Example 31, (E)-4-nitrostyryl-4-fluorobenzylsulfone] | ++++ (50-60% = ++++) | ++++ (50-60% = ++++) | ++++ (50-60% = ++++) | ++++ (50-60% = ++++) |
| O=S(=O)(/C=C/c1ccc(Br)cc1)Cc1ccc(C(F)(F)F)cc1 [Example 3, (E)-4-Bromostyryl-4-trifluoromethylbenzylsulfone] | ++ (10-15% = ++) | + (5-10%: = +) | + (5-10%: = +) | – |
| O=S(=O)(/C=C/c1cccc(C(F)(F)F)c1)Cc1ccc(Cl)cc1 [Example 40, (E)-3-trifluoromethylstyryl-4-chlorobenzylsulfone] | + (5-10%: = +) | + (5-10%: = +) | + (5-10%: = +) | + (5-10%: = +) |
| Cc1cc(/C=C/S(=O)(=O)Cc2ccc(Cl)cc2)ccc1F [Example 43, (E)-3-methyl-4-fluorostyryl-4-chlorobenzylsulfone] | + (5-10%: = +) | + (5-10%: = +) | + (5-10%: = +) | + (5-10%: = +) |
| COc1ccc(CS(=O)(=O)/C=C/c2ccccc2[N+](=O)[O-])cc1 [Example 63, (E)-2-nitrostyryl-4-methoxybenzylsulfone] | + (5-10%: = +) | + (5-10%: = +) | + (5-10%: = +) | + (5-10%: = +) |
| O=S(=O)(/C=C/c1cccc(C(F)(F)F)c1)Cc1ccc(F)cc1 [Example 33, (E)-3-trifluoromethylstyryl-4-fluorobenzylsulfone] | + (5-10%: = +) | + (5-10%: = +) | + (5-10%: = +) | + (5-10%: = +) |
| O=S(=O)(/C=C/c1ccc(F)cc1C(F)(F)F)Cc1ccc(Cl)cc1Cl [Example 45, (E)-2-trifluoromethyl-4-fluorostyryl-2,4-dichlorobenzylsulfone] | +++ (40-50% = +++) | +++ (40-50% = +++) | +++ (40-50% = +++) | +++ (40-50% = +++) |
| N#Cc1ccc(CS(=O)(=O)/C=C/c2ccccc2[N+](=O)[O-])cc1 [Example 52, (E)-2-nitrostyryl-4-cyanobenzylsulfone] | + (5-10%: = +) | + (5-10%: = +) | + (5-10%: = +) | + (5-10%: = +) |
| COc1ccc(CS(=O)(=O)/C=C/c2cccc([N+](=O)[O-])c2)cc1 [Example 64, (E)-3-nitrostyryl-4-methoxybenzylsulfone] | + (5-10%: = +) | + (5-10%: = +) | + (5-10%: = +) | + (5-10%: = +) |
| O=S(=O)(/C=C/c1ccc(Cl)cc1)Cc1ccc(Cl)c(Cl)c1 [Example 7, (E)-4-Chlorostyryl-3,4-dichlorobenzylsulfone] | ++ (10-15% = ++) | – | − (0% = −) | – |
| (E)-4-trifluoromethylstyryl-4-bromoyanobenzylsulfone [Example 51] | + (5-10%: = +) | + (5-10%: = +) | + (5-10%: = +) | + (5-10%: = +) |
| N#Cc1ccc(CS(=O)(=O)/C=C/c2cccc([N+](=O)[O-])c2)cc1 [Example 53, (E)-3-nitrostyryl-4-cyanobenzylsulfone] | + (5-10%: = +) | + (5-10%: = +) | + (5-10%: = +) | + (5-10%: = +) |
| O=S(=O)(/C=C/c1ccccc1C(F)(F)F)Cc1ccc(Br)cc1 [Example 49, (E)-2-trifluoromethylstyryl-4-bromobenzylsulfone] | + (5-10%: = +) | + (5-10%: = +) | + (5-10%: = +) | + (5-10%: = +) |
| N#Cc1ccc(CS(=O)(=O)/C=C/c2ccc([N+](=O)[O-])cc2)cc1 [Example 54, (E)-4-nitrostyryl-4-cyanobenzylsulfone] | ++++ (50-60% = ++++) | ++++ (50-60% = ++++) | ++++ (50-60% = ++++) | ++++ (50-60% = ++++) |
| O=S(=O)(/C=C/c1ccc(F)cc1)Cc1ccc(I)cc1 [Example 19, (E)-4-Fluorostyryl-4-iodobenzylsulfone] | +++++ (Above 80% = +++++) | +++++ (Above 80% = +++++) | +++++ (Above 80% = +++++) | +++++ (Above 80% = +++++) |
| Cc1ccc(CS(=O)(=O)/C=C/c2ccc(Br)cc2)cc1 [Example 56, (E)-4-bromostyryl-4-methylbenzylsulfone] | + (5-10%: = +) | + (5-10%: = +) | + (5-10%: = +) | + (5-10%: = +) |
| O=S(=O)(/C=C/c1ccc(I)cc1)Cc1ccc(Cl)cc1 [Example 21, (E)-4-Iodostyryl-4-chlorobenzylsulfone] | ++ (10-15% = ++) | ++ (10-15% = ++) | ++ (10-15% = ++) | ++ (10-15% = ++) |
| Cc1ccc(CS(=O)(=O)/C=C/c2ccccc2[N+](=O)[O-])cc1 [Example 57, (E)-2-nitrostyryl-4-methylbenzylsulfone] | + (5-10%: = +) | + (5-10%: = +) | + (5-10%: = +) | + (5-10%: = +) |
| COc1ccc(CS(=O)(=O)/C=C/c2ccc([N+](=O)[O-])cc2)cc1 [Example 65, (E)-4-nitrostyryl-4-methoxybenzylsulfone] | ++++ (50-60% = ++++) | ++++ (50-60% = ++++) | ++++ (50-60% = ++++) | ++++ (50-60% = ++++) |
